Eight molecules from ChEMBL document CHEMBL1127201, “Biological activity of 3-aminopropyl (methyl) phosphinic acid, a potent and selective GABAB agonist with CNS activity” (Bioorg Med Chem Lett, 1993) can be followed below.

In this experiment the target is GABA B receptor (Rattus norvegicus, UniProt O88871+Q9Z0U4). In words: In vitro displacement of [3H]GABA from Gamma-aminobutyric acid type B receptor sites in rat brain membranes. It is filed as cell membranes. Background: In a radioligand displacement assay an active substance lowers the binding of a labelled ligand.
Sequence of GABA B receptor (Q9Z0U4 whole entry): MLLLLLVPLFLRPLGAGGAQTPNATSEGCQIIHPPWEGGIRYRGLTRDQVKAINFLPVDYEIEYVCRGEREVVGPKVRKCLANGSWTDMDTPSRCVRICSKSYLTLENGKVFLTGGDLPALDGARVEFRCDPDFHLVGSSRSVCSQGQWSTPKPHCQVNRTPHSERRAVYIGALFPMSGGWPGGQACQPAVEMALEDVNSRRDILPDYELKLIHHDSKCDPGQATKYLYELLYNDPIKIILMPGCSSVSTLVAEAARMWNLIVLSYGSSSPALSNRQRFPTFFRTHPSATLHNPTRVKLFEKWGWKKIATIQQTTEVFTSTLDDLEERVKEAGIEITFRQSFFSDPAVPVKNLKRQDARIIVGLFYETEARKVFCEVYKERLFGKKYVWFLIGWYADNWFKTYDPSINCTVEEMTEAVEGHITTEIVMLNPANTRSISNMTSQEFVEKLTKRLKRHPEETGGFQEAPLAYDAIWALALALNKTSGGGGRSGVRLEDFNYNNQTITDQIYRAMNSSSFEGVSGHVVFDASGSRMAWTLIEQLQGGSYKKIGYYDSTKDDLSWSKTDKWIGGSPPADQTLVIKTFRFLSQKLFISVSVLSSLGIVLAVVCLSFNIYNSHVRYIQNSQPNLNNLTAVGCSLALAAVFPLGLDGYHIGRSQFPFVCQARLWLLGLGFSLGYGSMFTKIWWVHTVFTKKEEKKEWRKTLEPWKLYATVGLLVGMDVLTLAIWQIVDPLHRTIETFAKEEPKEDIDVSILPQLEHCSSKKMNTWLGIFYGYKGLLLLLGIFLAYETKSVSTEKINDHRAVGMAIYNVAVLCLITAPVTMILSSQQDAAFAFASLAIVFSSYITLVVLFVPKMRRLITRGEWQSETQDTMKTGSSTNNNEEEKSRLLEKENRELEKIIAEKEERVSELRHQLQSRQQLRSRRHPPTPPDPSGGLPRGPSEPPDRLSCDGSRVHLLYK
Sequence of GABA B receptor (O88871 whole entry): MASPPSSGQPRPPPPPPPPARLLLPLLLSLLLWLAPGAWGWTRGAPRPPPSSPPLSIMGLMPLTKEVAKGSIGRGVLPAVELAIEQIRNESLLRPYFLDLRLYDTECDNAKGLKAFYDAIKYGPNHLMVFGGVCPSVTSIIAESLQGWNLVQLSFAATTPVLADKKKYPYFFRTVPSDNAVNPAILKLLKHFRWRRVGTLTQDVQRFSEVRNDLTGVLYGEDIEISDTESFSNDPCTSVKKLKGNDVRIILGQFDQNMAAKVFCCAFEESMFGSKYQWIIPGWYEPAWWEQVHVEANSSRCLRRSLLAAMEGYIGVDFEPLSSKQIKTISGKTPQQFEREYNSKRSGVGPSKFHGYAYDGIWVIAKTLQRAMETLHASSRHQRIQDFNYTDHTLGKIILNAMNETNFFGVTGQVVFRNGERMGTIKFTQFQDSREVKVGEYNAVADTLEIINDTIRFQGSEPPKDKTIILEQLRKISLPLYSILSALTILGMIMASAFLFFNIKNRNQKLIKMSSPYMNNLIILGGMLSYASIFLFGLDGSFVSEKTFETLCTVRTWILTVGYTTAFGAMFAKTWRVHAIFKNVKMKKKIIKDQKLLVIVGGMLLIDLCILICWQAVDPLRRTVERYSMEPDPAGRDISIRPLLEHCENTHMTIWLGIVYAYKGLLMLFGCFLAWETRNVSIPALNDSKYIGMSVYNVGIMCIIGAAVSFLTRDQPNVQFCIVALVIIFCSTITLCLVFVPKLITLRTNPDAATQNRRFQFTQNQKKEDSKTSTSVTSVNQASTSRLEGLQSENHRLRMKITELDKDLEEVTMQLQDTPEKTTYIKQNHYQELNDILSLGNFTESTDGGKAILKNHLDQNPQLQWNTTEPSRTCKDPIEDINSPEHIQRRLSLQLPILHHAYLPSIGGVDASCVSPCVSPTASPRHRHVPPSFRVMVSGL
Regarding `NCCC[PH](=O)O`, the IC50 (commonly the concentration needed to halve the response being measured) amounted to 3 nM.
`CCCCCCP(=O)(O)CCCN` yielded an IC50 of 1000 nM.
For `NCCCP(=O)(O)O`, the IC50 was 2000 nM.
`CCP(=O)(O)CCCN`: the IC50 came to 3000 nM.
`NCCOS(=O)(=O)O` registered a concentration for half-maximal inhibition (IC50) of more than 100000 nM.
Molecule `CCOC(OCC)P(=O)(O)CCCN` gave an IC50 of 2500 nM.
As for `NCCOP(=O)(O)O` [PHOSPHORYLETHANOLAMINE], the half-maximal inhibitory concentration (IC50) is more than 100000 nM.
In turn, `NCCCS(=O)(=O)O` [TRAMIPROSATE] displayed an IC50 of 2000 nM.
